Results as given in publication PMC12040169 (PLOS Biology, 2025).

Assay: in vitro
Conditions: human, hela cells, % viability

| Compound | viability at 28.5 h, 10 µM |
| --- | --- |
| c1cnc(N2CCN(Cc3ccc4c(c3)OCO4)CC2)c(OC2CCCCC2)n1 [CBK082833T] | 95.6% |
| CSCCN1CCN(c2nccnc2OC2CCCCC2)CC1 [CBK082843T] | 108% |
| c1ccc2c(CCN3CCN(c4nccnc4OC4CCCCC4)CC3)c[nH]c2c1 [CBK082847T] | 100% |
| FC(F)(F)c1ccc(CN2CCC(Oc3nccnc3OC3CCCCC3)CC2)cc1 [CBK082859T] | 92.1% |
| O=[N+]([O-])c1ccc(CN2CCC(Oc3nccnc3OC3CCCCC3)CC2)cc1 [CBK082861T] | 90.4% |
| CCN(CC)C(=O)CN1CCC(Oc2nccnc2OC2CCCCC2)CC1 [CBK082866T] | 87% |
| c1ccc2c(CCN3CCC(Oc4nccnc4OC4CCCCC4)CC3)c[nH]c2c1 [CBK082877T] | 86.2% |
| c1cnc(OC2CCN(CC3CCCCC3)CC2)c(OC2CCCCC2)n1 [CBK082879T] | 101% |
| c1ccc(CN2CCN(c3nccnc3OCCN3CCOCC3)CC2)cc1 [CBK082885T] | 104% |
| Fc1ccccc1CN1CCN(c2nccnc2OCCN2CCOCC2)CC1 [CBK082886T] | 102% |
| O=[N+]([O-])c1ccc(CN2CCN(c3nccnc3OCCN3CCOCC3)CC2)cc1 [CBK082892T] | 99.8% |
| c1cnc(N2CCN(Cc3ccc4c(c3)OCO4)CC2)c(OCCN2CCOCC2)n1 [CBK082894T] | 87.8% |
| CCN(CC)c1ccc(C(=O)CN2CCN(c3nccnc3OCCN3CCOCC3)CC2)cc1 [CBK082898T] | 97.4% |
| c1cnc(N2CCN(CC3CC3)CC2)c(OCCN2CCOCC2)n1 [CBK082909] | 87.2% |
| c1cncc(OCCN2CCN(c3nccnc3OCCN3CCOCC3)CC2)c1 [CBK082914] | 107% |
| Clc1ccc(CN2CCC(Oc3nccnc3OCCN3CCOCC3)CC2)cc1 [CBK082918T] | 92.5% |
| O=[N+]([O-])c1ccc(CN2CCC(Oc3nccnc3OCCN3CCOCC3)CC2)cc1 [CBK082923T] | 91% |
| c1cnc(OC2CCN(Cc3ccc4c(c3)OCO4)CC2)c(OCCN2CCOCC2)n1 [CBK082925T] | 115% |
| CCN(CC)C(=O)CN1CCC(Oc2nccnc2OCCN2CCOCC2)CC1 [CBK082928] | 93.4% |
| CCOC(=O)CN1CCC(Oc2nccnc2OCCN2CCOCC2)CC1 [CBK082929] | 103% |
| CCN1CCC(Oc2nccnc2OCCN2CCOCC2)CC1 [CBK082931] | 94.6% |
| CSCCN1CCC(Oc2nccnc2OCCN2CCOCC2)CC1 [CBK082935] | 92.9% |

| Compound | viability at 28.5 h, 10 µM |
| --- | --- |
| c1ccc2c(CCN3CCC(Oc4nccnc4OCCN4CCOCC4)CC3)c[nH]c2c1 [CBK082939T] | 88.6% |
| c1ccc2cc(CCN3CCC(Oc4nccnc4OCCN4CCOCC4)CC3)ccc2c1 [CBK082942T] | 90.7% |
| c1ccc(CCN2CCC(Oc3nccnc3OCCN3CCOCC3)CC2)nc1 [CBK082944] | 96% |
| Cc1cc(COc2nccnc2OC2CCN(Cc3ccc(Cl)cc3)CC2)no1 [CBK082949T] | 85.7% |
| Cc1cc(COc2nccnc2OC2CCN(CC(=O)Nc3c(C)cccc3C)CC2)no1 [CBK082958T] | 103% |
| CCN1CCC(Oc2nccnc2OCc2cc(C)on2)CC1 [CBK082962T] | 94.7% |
| O=[N+]([O-])c1ccc(CN2CCC(Oc3nccnc3OCC3COc4ccccc4O3)CC2)cc1 (stereo not shown) [CBK082984T] | 99.1% |
| Fc1ccc(Oc2nccnc2N2CCN(Cc3cccnc3)CC2)cc1 [CBK083011] | 87.5% |
| Fc1ccc(Oc2nccnc2N2CCN(CCOc3cccnc3)CC2)cc1 [CBK083037T] | 98.7% |
| COc1ccc(Oc2nccnc2N2CCN(Cc3ccc(Cl)c(Cl)c3)CC2)cc1OC [CBK083038T] | 91.8% |
| CCN(CC)C(=O)CN1CCN(c2nccnc2Oc2ccc(OC)c(OC)c2)CC1 [CBK083051T] | 103% |
| CCOC(=O)CN1CCN(c2nccnc2Oc2ccc(OC)c(OC)c2)CC1 [CBK083052T] | 103% |
| COc1ccc(Oc2nccnc2N2CCN(CCCC#N)CC2)cc1OC [CBK083056T] | 95.5% |
| COc1ccc(Oc2nccnc2N2CCN(CCOc3ccccc3)CC2)cc1OC [CBK083061T] | 86.3% |
| O=[N+]([O-])c1ccc(CN2CCN(c3nccnc3OCc3ccc(Cl)c(Cl)c3)CC2)cc1 [CBK083076T] | 101% |
| CCN(CC)C(=O)CN1CCN(c2nccnc2OCc2ccc(Cl)c(Cl)c2)CC1 [CBK083081T] | 101% |
| Clc1ccc(COc2nccnc2N2CCN(CCOc3ccccc3)CC2)cc1Cl [CBK083091T] | 95.2% |
| Clc1ccc(COc2nccnc2OC2CCN(Cc3ccc4c(c3)OCO4)CC2)cc1Cl [CBK083109T] | 86.6% |
| CCOC(=O)CN1CCC(Oc2nccnc2OCc2ccc(Cl)c(Cl)c2)CC1 [CBK083113T] | 96.7% |
| Clc1ccc(COc2nccnc2OC2CCN(CCOc3ccccc3)CC2)cc1Cl [CBK083121T] | 95.9% |
| c1ccc(CN2CCN(c3nccnc3OCc3cccnc3)CC2)cc1 [CBK083129T] | 91.3% |
| O=[N+]([O-])c1ccc(CN2CCN(c3nccnc3OCc3cccnc3)CC2)cc1 [CBK083135T] | 106% |

| Compound | viability at 28.5 h, 10 µM |
| --- | --- |
| CCN1CCN(c2nccnc2OCc2cccnc2)CC1 [CBK083142] | 113% |
| CSCCN1CCN(c2nccnc2OCc2cccnc2)CC1 [CBK083146] | 91% |
| FC(F)(F)c1ccc(CN2CCC(Oc3nccnc3OCc3cccnc3)CC2)cc1 [CBK083160T] | 91.6% |
| O=[N+]([O-])c1ccc(CN2CCC(Oc3nccnc3OCc3cccnc3)CC2)cc1 [CBK083162T] | 95.8% |
| NC(=O)CN1CCC(Oc2nccnc2OCc2cccnc2)CC1 [CBK083165] | 107% |
| CSCCN1CCC(Oc2nccnc2OCc2cccnc2)CC1 [CBK083173] | 90.3% |
| c1ccc(CCN2CCC(Oc3nccnc3OCc3cccnc3)CC2)nc1 [CBK083180] | 103% |
| O=C(Nc1cccnc1)C1CCN(C(=O)OCc2ccccc2)CC1 [CBK083187] | 90.6% |
| CCC1CCCCN1C(=O)c1cccc(C(=O)OC)c1 (stereo not shown) [CBK083195] | 109% |
| CCC1CCCCN1C(=O)c1ccccc1OC (stereo not shown) [CBK083205] | 99.4% |
| COc1ccc(CN2CCCN(c3ccnc(OCC4COc5ccccc5O4)n3)CC2)cc1 (stereo not shown) [CBK083234T] | 96.8% |
| c1ccc2c(c1)OCC(COc1nccc(N3CCCN(Cc4ccc5c(c4)OCO5)CC3)n1)O2 (stereo not shown) [CBK083235T] | 85.7% |
| CC(C)c1ccc(CN2CCCN(c3cc(OCCc4c[nH]c5ccccc45)ncn3)CC2)cc1 [CBK083280T] | 106% |
| CCN(CC)C(=O)CN1CCCN(c2cc(OCc3cc(C)on3)ncn2)CC1 [CBK083337T] | 97% |
| Clc1ccc(CN2CCCN(c3cc(OC4CCCCC4)ncn3)CC2)cc1Cl [CBK083338T] | 79.5% |
| CCN(CC)C(=O)CN1CCCN(c2cc(Oc3ccc(OC)c(OC)c3)ncn2)CC1 [CBK083359T] | 98.5% |
| N#CCCCN1CCCN(c2cc(OCC3COc4ccccc4O3)ncn2)CC1 (stereo not shown) [CBK083391T] | 85.8% |
| c1ccc(OCCN2CCCN(c3cc(OCC4COc5ccccc5O4)ncn3)CC2)cc1 (stereo not shown) [CBK083395T] | 87.7% |
| CCOC(=O)N1CCN(c2cccc3[nH]c(C(=O)O)cc23)CC1 [CBK083477] | 93.9% |
| c1cc(OCCN2CCCC2)c2cc[nH]c2c1 [CBK083478] | 101% |
| COc1ccc([C@@]23CC[C@@H](NC(=O)c4ccc(F)c(F)c4)C[C@@H]2CN(C)C3)cc1OC [CBK083504T] | 90.2% |
| COC(=O)N1CC2(CCCCC2NCc2c[nH]c(C)n2)c2ccccc21 (stereo not shown) [CBK083547T] | 108% |

| Compound | viability at 28.5 h, 10 µM |
| --- | --- |
| CC1=NN(c2ccccc2)C(=O)C1C(=O)c1ccccc1 (stereo not shown) [CBK083564] | 99.3% |
| COc1ccc(OC(=O)c2ccc3ncccc3c2)cc1 [CBK083572] | 96.3% |
| COc1ccc(OC(=O)c2csc(Cc3c(Cl)cccc3Cl)n2)cc1 [CBK083573] | 95.7% |
| Brc1ccc2[nH]c3c(c2c1)CCNC31CCN(CCOc2ccccc2)C1 (stereo not shown) [CBK083578] | 75.5% |
| Cc1cc(OC(=O)C2CCC(CNC(=O)OC(C)(C)C)CC2)c2c3c(c(=O)oc2c1)CCC3 (stereo not shown) [CBK083583] | 103% |
| Cc1cc(OC(=O)C2CCC(CNC(=O)OC(C)(C)C)CC2)c2c3c(c(=O)oc2c1)CCCC3 (stereo not shown) [CBK083590] | 102% |
| Clc1nccnc1N1CCCC1 [CBK083594] | 101% |
| Clc1cncc(N2CCCC2)n1 [CBK083595] | 118% |
| Clc1nc2ccccc2nc1N1CCCC1 [CBK083596] | 101% |
| Clc1cc(N2CCCC2)ncn1 [CBK083597] | 99.2% |
| c1nc(OCCN2CCOCC2)cc(N2CCCN(CCN3CCOCC3)CC2)n1 [CBK083647] | 103% |
| COc1ccc(C(NC(=O)NNC(=O)CCC(=O)c2ccc(F)cc2)c2ccccc2C)cn1 (stereo not shown) [CBK083659] | 99% |
| Nc1c(-c2ccc3c(c2)CCO3)cnc2ncccc12 [CBK083678] | 96% |
| CCCCc1ccc(-c2cnc3ncccc3c2N)cc1 [CBK083683] | 96.2% |
| CC(C)(C)c1ccc(-c2cnc3ncccc3c2N)cc1 [CBK083684] | 99.9% |
| CS(=O)(=O)c1ccc(-c2cnc3ncccc3c2N)cc1 [CBK083687] | 97.5% |
| Nc1c(-c2ccsc2)cnc2ncccc12 [CBK083707] | 108% |
| CC(C)C(=O)Nc1c(-c2ccsc2)cnc2ncccc12 [CBK083714] | 88.7% |
| CCNC(=O)Nc1ccc(-c2ccncc2)c2ccccc12 [CBK083720] | 88.8% |
| CCNC(=O)Nc1ccc(-c2ccc(SC)cc2)c2ccccc12 [CBK083723] | 90.4% |
| CCNC(=O)Nc1ccc(-c2ccc3c(c2)OCCCO3)c2ccccc12 [CBK083726] | 89.4% |
| CCNC(=O)Nc1ccc(-c2ccc(S(C)(=O)=O)cc2)c2ccccc12 [CBK083728] | 88.1% |
